In the supplement of paper PMC5662764:
± gives the standard deviation of the averaged measurements.

Experiments:
Test in all cases: normalised growth rate inhibition (GR value) relative to DMSO control (GR (1 = untreated growth, 0 = cytostasis, <0 = cytotoxic)); higher = less growth inhibition
Settings in all cases: 72 h
[1] = system: BT20
Outline: (§1)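 Six breast cell lines in 384-well plates were exposed to drugs at 0.04–10 µM for 72 h, starting 24 h after seeding. Viable cells were counted in Columbus from Operetta images, and counts were compared with same-plate DMSO wells and a day-0 plate. Normalised growth rate inhibition from those counts was averaged across technical plate replicates.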

[2] = system: HS578T
Outline: as §1

[3] = system: MCF10A
Outline: as §1

[4] = system: MCF7
Outline: as §1

[5] = system: MDAMB231
Outline: as §1

[6] = system: SKBR3
Outline: as §1

Structure (SMILES)	normalised growth rate inhibition ([1]; 0.04 µM)	normalised growth rate inhibition ([1]; 0.12 µM)	normalised growth rate inhibition ([1]; 0.37 µM)	normalised growth rate inhibition ([1]; 1.11 µM)	normalised growth rate inhibition ([1]; 3.33 µM)	normalised growth rate inhibition ([1]; 10 µM)	normalised growth rate inhibition ([2]; 0.04 µM)	normalised growth rate inhibition ([2]; 0.12 µM)	normalised growth rate inhibition ([2]; 0.37 µM)	normalised growth rate inhibition ([2]; 1.11 µM)	normalised growth rate inhibition ([2]; 3.33 µM)	normalised growth rate inhibition ([2]; 10 µM)	normalised growth rate inhibition ([3]; 0.04 µM)	normalised growth rate inhibition ([3]; 0.12 µM)	normalised growth rate inhibition ([3]; 0.37 µM)	normalised growth rate inhibition ([3]; 1.11 µM)	normalised growth rate inhibition ([3]; 3.33 µM)	normalised growth rate inhibition ([3]; 10 µM)	normalised growth rate inhibition ([4]; 0.04 µM)	normalised growth rate inhibition ([4]; 0.12 µM)	normalised growth rate inhibition ([4]; 0.37 µM)	normalised growth rate inhibition ([4]; 1.11 µM)	normalised growth rate inhibition ([4]; 3.33 µM)	normalised growth rate inhibition ([4]; 10 µM)	normalised growth rate inhibition ([5]; 0.04 µM)	normalised growth rate inhibition ([5]; 0.12 µM)	normalised growth rate inhibition ([5]; 0.37 µM)	normalised growth rate inhibition ([5]; 1.11 µM)	normalised growth rate inhibition ([5]; 3.33 µM)	normalised growth rate inhibition ([5]; 10 µM)	normalised growth rate inhibition ([6]; 0.04 µM)	normalised growth rate inhibition ([6]; 0.12 µM)	normalised growth rate inhibition ([6]; 0.37 µM)	normalised growth rate inhibition ([6]; 1.11 µM)	normalised growth rate inhibition ([6]; 3.33 µM)	normalised growth rate inhibition ([6]; 10 µM)
CNC(=O)c1cc(Oc2ccc(NC(=O)Nc3ccc(Cl)c(C(F)(F)F)c3)cc2)ccn1 [sorafenib]	0.936 ± 0.017	0.931 ± 0.023	0.855 ± 0.052	0.849 ± 0.036	0.836 ± 0.026	0.429 ± 0.35	1.13 ± 0.076	1.14 ± 0.061	1.16 ± 0.098	1.18 ± 0.12	1.15 ± 0.11	0.874 ± 0.093	1.02 ± 0.046	0.993 ± 0.048	0.978 ± 0.047	0.97 ± 0.034	0.95 ± 0.038	0.65 ± 0.1	0.946 ± 0.023	0.91 ± 0.057	0.936 ± 0.028	0.906 ± 0.072	0.852 ± 0.089	0.247 ± 0.12	1.01 ± 0.045	0.917 ± 0.13	0.927 ± 0.11	0.938 ± 0.18	0.918 ± 0.13	0.801 ± 0.12	0.908 ± 0.048	0.954 ± 0.093	0.993 ± 0.07	1.03 ± 0.074	1.04 ± 0.084	0.212 ± 0.27
CCC(=O)N1CCN(c2ccc(-n3c(=O)ccc4cnc5ccc(-c6cnc7ccccc7c6)cc5c43)cc2C(F)(F)F)CC1 [torin-1]	0.271 ± 0.076	0.11 ± 0.081	0.0128 ± 0.054	-0.0682 ± 0.033	-0.152 ± 0.025	-0.251 ± 0.026	0.267 ± 0.069	0.213 ± 0.075	0.163 ± 0.086	0.0994 ± 0.083	0.0438 ± 0.084	-0.093 ± 0.14	0.529 ± 0.13	0.304 ± 0.042	0.198 ± 0.017	0.161 ± 0.026	0.156 ± 0.006	0.0917 ± 0.027	0.166 ± 0.044	0.119 ± 0.024	0.082 ± 0.038	0.0141 ± 0.045	-0.0224 ± 0.046	-0.068 ± 0.033	0.464 ± 0.038	0.339 ± 0.053	0.243 ± 0.073	0.178 ± 0.051	0.116 ± 0.055	-0.0316 ± 0.1	0.0209 ± 0.19	-0.0144 ± 0.18	-0.0642 ± 0.15	-0.11 ± 0.18	-0.161 ± 0.17	-0.218 ± 0.19
Nc1ccc(-c2ccc3ncc4ccc(=O)n(-c5cccc(C(F)(F)F)c5)c4c3c2)cn1 [torin-2]	-0.0219 ± 0.046	-0.0695 ± 0.021	-0.128 ± 0.077	-0.218 ± 0.081	-0.287 ± 0.077	-0.251 ± 0.1	0.192 ± 0.058	0.0992 ± 0.089	-0.0345 ± 0.13	-0.0453 ± 0.13	-0.0773 ± 0.12	-0.135 ± 0.14	0.169 ± 0.23	0.111 ± 0.1	0.0505 ± 0.063	0.0367 ± 0.05	0.0667 ± 0.053	0.0215 ± 0.048	-0.0044 ± 0.038	-0.0152 ± 0.09	-0.0495 ± 0.065	-0.0476 ± 0.037	-0.0446 ± 0.024	-0.111 ± 0.026	0.225 ± 0.084	0.135 ± 0.11	0.0529 ± 0.1	0.0249 ± 0.13	-0.112 ± 0.36	-0.199 ± 0.18	-0.135 ± 0.11	-0.132 ± 0.11	-0.158 ± 0.11	-0.168 ± 0.13	-0.21 ± 0.077	-0.286 ± 0.19
Cc1cc(Nc2cc(N3CCN(C)CC3)nc(Sc3ccc(NC(=O)C4CC4)cc3)n2)n[nH]1 [tozasertib]	0.385 ± 0.12	0.0628 ± 0.1	-0.0205 ± 0.094	-0.0318 ± 0.12	-0.0355 ± 0.11	-0.0179 ± 0.11	0.123 ± 0.11	0.0776 ± 0.12	0.108 ± 0.13	0.0732 ± 0.11	0.105 ± 0.12	0.0498 ± 0.077	0.395 ± 0.2	0.145 ± 0.087	0.124 ± 0.056	0.118 ± 0.064	0.0967 ± 0.04	0.0692 ± 0.053	0.0704 ± 0.017	0.0656 ± 0.024	0.0723 ± 0.044	0.0794 ± 0.022	0.0768 ± 0.026	0.0394 ± 0.0083	0.0769 ± 0.023	0.056 ± 0.045	0.0918 ± 0.037	0.0708 ± 0.039	0.0979 ± 0.038	0.1 ± 0.13	-0.143 ± 0.11	-0.117 ± 0.076	-0.0975 ± 0.11	-0.082 ± 0.1	-0.0918 ± 0.1	-0.044 ± 0.1
CC(=O)Nc1cccc(-n2c(=O)n(C3CC3)c(=O)c3c(Nc4ccc(I)cc4F)n(C)c(=O)c(C)c32)c1 [trametinib]	0.71 ± 0.046	0.78 ± 0.049	0.743 ± 0.047	0.717 ± 0.053	0.683 ± 0.019	0.762 ± 0.066	0.261 ± 0.05	0.203 ± 0.071	0.194 ± 0.091	0.186 ± 0.088	0.179 ± 0.075	0.198 ± 0.091	0.152 ± 0.076	0.178 ± 0.068	0.182 ± 0.083	0.202 ± 0.071	0.206 ± 0.058	0.231 ± 0.058	0.364 ± 0.029	0.365 ± 0.027	0.36 ± 0.011	0.387 ± 0.03	0.427 ± 0.0076	0.425 ± 0.013	0.0906 ± 0.041	0.129 ± 0.1	0.117 ± 0.072	0.11 ± 0.072	0.11 ± 0.082	0.128 ± 0.11	0.503 ± 0.17	0.607 ± 0.08	0.565 ± 0.14	0.613 ± 0.11	0.624 ± 0.12	0.631 ± 0.16
CCCS(=O)(=O)Nc1ccc(F)c(C(=O)c2c[nH]c3ncc(-c4ccc(Cl)cc4)cc23)c1F [vemurafenib]	0.971 ± 0.051	0.968 ± 0.052	0.964 ± 0.035	0.949 ± 0.057	0.87 ± 0.031	0.582 ± 0.032	1.04 ± 0.014	1.03 ± 0.011	1.03 ± 0.038	1.01 ± 0.051	0.89 ± 0.075	0.548 ± 0.033	0.9898 ± 0.0042	0.9881 ± 0.0069	0.9871 ± 0.0051	0.955 ± 0.045	0.798 ± 0.14	0.462 ± 0.096	0.978 ± 0.017	1.02 ± 0.024	1.03 ± 0.015	1.01 ± 0.046	0.998 ± 0.022	0.858 ± 0.086	0.975 ± 0.042	0.965 ± 0.03	0.964 ± 0.025	0.897 ± 0.061	0.827 ± 0.064	0.422 ± 0.042	1.05 ± 0.069	1.03 ± 0.044	1.03 ± 0.04	1.01 ± 0.042	0.951 ± 0.046	0.805 ± 0.032
CC1=C(CO)C(=O)O[C@@H]([C@@H](C)[C@H]2CC[C@H]3[C@@H]4C[C@H]5O[C@]56[C@@H](O)C=CC(=O)[C@]6(C)[C@H]4CC[C@]23C)C1 [withaferin-a]	1.04 ± 0.038	0.99 ± 0.083	0.714 ± 0.13	-0.105 ± 0.13	-0.345 ± 0.065	-0.283 ± 0.026	1.01 ± 0.018	1.01 ± 0.02	0.944 ± 0.077	-0.0869 ± 0.077	-0.085 ± 0.037	-0.287 ± 0.077	0.9993 ± 0.0071	0.984 ± 0.025	0.861 ± 0.05	-0.0779 ± 0.054	-0.193 ± 0.15	-0.244 ± 0.19	1.01 ± 0.055	0.907 ± 0.091	0.283 ± 0.09	0.0882 ± 0.037	-0.196 ± 0.13	-0.141 ± 0.099	1.04 ± 0.053	1 ± 0.05	0.614 ± 0.16	-0.0338 ± 0.067	-0.143 ± 0.056	-0.336 ± 0.097	1.04 ± 0.063	0.892 ± 0.096	0.174 ± 0.15	-0.104 ± 0.11	-0.3 ± 0.086	-0.278 ± 0.12
